Laboratory results from US10988741B2, “Mutated genes for the catalytic protein of Oplophorus luciferase and use thereof” (JNC CORPORATION, priority 2014, dated 2021).

Assays:
[1] = Luminescence activity of ZZ-fused nanoKAZ mutants expressed in E. coli (soluble fraction); type: biochemical; conditions: nanoKAZ with CTZ = 1.0
Procedure: The E. coli BL21 strain (manufactured by Novagen) was used as a host cell. The strain was cultured in 10 mL of Luria-Bertani medium containing ampicillin (50 μg/mL) at 37° C. for 18 hours. The seed culture was inoculated to 10 mL of LB medium and incubated for 3 hours, followed by cooling in an ice-water bath for 1 hour. IPTG was added to the culture medium at a final concentration of 0.2 mM, followed by incubation at 15° C. for further 20 hours. The E. coli cells were collected from 1 mL of the culture medium by centrifugation. The collected E. coli cells were suspended in 0.5 mL of 50 mM Tris-HCl (pH 7.6) containing 10 mM EDTA (manufactured by Wako Pure Chemical Industries, Ltd.). The cells were disrupted by sonication for 5 seconds using a Branson Model 250 Sonifire. The cells were subjected to high-speed centrifugation to recover 0.5 mL of the supernatant as a soluble fraction containing the ZZ-fused nanoKAZ mutant. This soluble fraction, 5 μL, was subjected to SDS-PAGE electrophoresis to confirm expression of the proteins. In FIG. 2, numerals 1 to 5 represent as follows: 1: molecular weight size markers; 2: nanoKAZ, 3: nanoKAZ-AQQL, 4: nanoKAZ-KVA, 5: nanoKAZ-FLM. The results in FIG. 2 reveal that each mutated nanoKAZ protein was expressed in E. coli as soluble proteins at the same expression level as in nanoKAZ.
After 5 μL of the soluble fraction solution obtained in EXAMPLE 3 was added to 100 μL of 50 mM Tris-HCl (pH 7.6)-10 mM EDTA containing 1 μg of coelenterazine (manufactured by JNC Corp.) or its analogue, a luminescence reaction was started. Luminescence activity was measured for 60 seconds using a luminometer (manufactured by Atto Inc.: AB2200). The relative maximum intensity of luminescence (Imax) and the integrated values for 60 seconds within parentheses in terms of relative intensity of luminescence are shown in TABLE 2.
The coelenterazine analogues used for substrate specificity studies were synthesized by the methods described in publications, respectively. Specifically, bis-coelenterazine was synthesized by the method described in Nakamura et al. (1997) Tetrahedron Lett. 38: 6405-6406, furimazine by the method described in Hall et al. (2012) ACS Chem. Biol. […], h-coelenterazine by the method described in Inouye et al (2010) Anal. Biochem. 407:247-252 and 6h-coelenterazine and 6h-f-coelenterazine by the method described in Inouye et al (2013) Biochem. Biophys. Res. Commun. 437: 23-28. f-coelenterazine was purchased from Prolume Ltd. Luminescence activity of the ZZ-fused nanoKAZ mutants was measured by the method described in EXAMPLE 4.

[2] = Luminescence activity of nanoKAZ mutants secreted into culture medium from CHO-K1 cells using secretory signal peptide sequence; type: biochemical; conditions: nanoKAZ with CTZ = 1.0
Procedure: (§1) Chinese hamster ovary cell line CHO-K1 was cultured in Ham's F-12 medium (manufactured by Wako Pure Chemical Industries, Ltd.) supplemented with 10% (v/v) fetal bovine serum (manufactured by Biowest Inc.). The CHO-K1 cells were seeded in a 6-well plate in 2×10^5 cells/well/2 mL medium (n=2) and cultured in an incubator at 37° C. in 5% (v/v) CO2. After 24 hours, the purified recombinant plasmid was transfected to CHO-K1 cells using a FuGene HD transfection kit (manufactured by Promega Corp.) and the cells were provided for subsequent experiment. Specifically, 1 μg of the recombinant plasmid, 0.1 μg of the internal standard vector pGL4.13 [Luc2/sv40] and 3.3 μL of FuGene HD were added to 100 μL of the medium and allowed to stand at room temperature for 15 minutes. Subsequently, 100 μL of the DNA-FuGene complex solution was added to the cells in the 6-well plate. After incubation for 46 hours, the culture medium was collected.
(§2) The crude enzyme solution, 5 μl, obtained in EXAMPLE 8 was added to 100 μl of 30 mM Tris-HCl (pH 7.6)-10 mM EDTA (Wako Pure Chemical Industries, Ltd.) containing 1 μg of coelenterazine (manufactured by JNC Corp.), and the luminescence reaction was started. Luminescence activity was measured for 60 seconds using a luminometer (manufactured by Atto Inc.: AB2200); the maximum intensity of luminescence (Imax) and the integrated values for 60 seconds within parentheses in terms of relative intensity of luminescence are shown in TABLE 3.
(§3) Luminescence activity of the nanoKAZ mutants secreted into the culture medium from animal cultured cells using the secretory signal peptide sequence was measured by the method described in EXAMPLE 9. […] The nanoKAZ-AQQL mutant is secretable protein and can use coelenterazine as the most efficient substrate for the luminescence reaction.

[3] = as above; type: biochemical; conditions: substrate furimazine, with secretory signal peptide, nanoKAZ with CTZ = 1.0
Procedure: as §1, with “Subsequently, 100 μL of the DNA-FuGene complex solution was added to the cells in the 6-well plate. After incubation for 46 hours, the culture medium was collected.” left out
Luminescence activity was measured for 60 seconds using a luminometer (manufactured by Atto Inc.: AB2200); the maximum intensity of luminescence (Imax) and the integrated values for 60 seconds within parentheses in terms of relative intensity of luminescence are shown in TABLE 3.
as §3

[4] = Luminescence activity of nanoKAZ mutants in culture medium of CHO-K1 cells without secretory signal peptide sequence; type: biochemical; conditions: substrate coelenterazine (CTZ), nanoKAZ = 1.0
Procedure: Chinese hamster ovary cell line CHO-K1 was cultured in Ham's F-12 medium (manufactured by Wako Pure Chemical Industries, Ltd.) supplemented with 10% (v/v) fetal bovine serum (manufactured by Biowest Inc.). The CHO-K1 cells were seeded in a 6-well plate in 2×10^5 cells/well/2 mL medium (n=2) and cultured in an incubator at 37° C. in 5% (v/v) CO2. After 24 hours, the purified recombinant plasmid was transfected to CHO-K1 cells using a FuGene HD transfection kit (manufactured by Promega Corp.) and the cells were provided for subsequent experiment. […]
as §2
Luminescence activity of the nanoKAZ mutants in culture medium, which were secreted from animal culture cells without using a secretory signal peptide sequence, was measured by the method described in EXAMPLE 9. […]

[5] = reported in the literature (Patent Document 2, Non-Patent Documents 5 and 6); cited from earlier work
[6] = substrate 6h-coelenterazine, with secretory signal peptide
[7] = substrate 6h-f-coelenterazine, with secretory signal peptide
[8] = substrate bis-coelenterazine, with secretory signal peptide
[9] = substrate coelenterazine (CTZ), with Gaussia luciferase secretory signal peptide
[10] = substrate f-coelenterazine, with secretory signal peptide
[11] = substrate h-coelenterazine, with secretory signal peptide

Substance: nanoKAZ: known mutated 19 kDa catalytic protein of Oplophorus luciferase with 16 amino acid mutations; amino acid sequence SEQ ID NO: 2
- Relative maximum intensity of luminescence Imax ([1]; substrate 6h-coelenterazine): 0.6
- integrated values of relative intensity of luminescence for 1 min ([1]; substrate 6h-coelenterazine): (0.4)
- Relative maximum intensity of luminescence Imax ([1]; substrate 6h-f-coelenterazine): 7.9
- integrated values of relative intensity of luminescence for 1 min ([1]; substrate 6h-f-coelenterazine): (4.6)
- Relative maximum intensity of luminescence Imax ([1]; substrate bis-coelenterazine): 9.0
- integrated values of relative intensity of luminescence for 1 min ([1]; substrate bis-coelenterazine): (6.3)
- Relative maximum intensity of luminescence Imax ([1]; substrate coelenterazine (CTZ)): 1.0
- integrated values of relative intensity of luminescence for 1 min ([1]; substrate coelenterazine (CTZ)): (1.0)
- Relative maximum intensity of luminescence Imax ([1]; substrate f-coelenterazine): 20.2
- integrated values of relative intensity of luminescence for 1 min ([1]; substrate f-coelenterazine): (10.0)
- Relative maximum intensity of luminescence Imax ([1]; substrate furimazine): 4.8
- integrated values of relative intensity of luminescence for 1 min ([1]; substrate furimazine): (3.7)
- Relative maximum intensity of luminescence Imax ([1]; substrate h-coelenterazine): 14.2
- integrated values of relative intensity of luminescence for 1 min ([1]; substrate h-coelenterazine): (7.4)
- Relative maximum intensity of luminescence Imax [2, 6]: 0.8
- integrated values of relative intensity of luminescence for 1 min [2, 6]: (0.7)
- Relative maximum intensity of luminescence Imax [2, 7]: 11.7
- integrated values of relative intensity of luminescence for 1 min [2, 7]: (11.8)
- Relative maximum intensity of luminescence Imax [2, 8]: 11.1
- integrated values of relative intensity of luminescence for 1 min [2, 8]: (11.1)
- Relative maximum intensity of luminescence Imax [2, 9]: 1.0
- integrated values of relative intensity of luminescence for 1 min [2, 9]: (1.0)
- Relative maximum intensity of luminescence Imax [2, 10]: 21.6
- integrated values of relative intensity of luminescence for 1 min [2, 10]: (12.2)
- Relative maximum intensity of luminescence Imax [2, 11]: 16.4
- integrated values of relative intensity of luminescence for 1 min [2, 11]: (9.9)
- Relative maximum intensity of luminescence Imax [3]: 5.9
- integrated values of relative intensity of luminescence for 1 min [3]: (6.2)
- Relative maximum intensity of luminescence Imax [4]: 1.0 (1.0)
- integrated values of relative intensity of luminescence for 1 min [4]: 1.0 (1.0)
- luminescence activity, fold higher than that of native 19 kDa protein [5]: approximately 10 fold
